Reference: ChEMBL document CHEMBL6114991, “Design, synthesis, and biological evaluation of novel quinoline carboxylic acid based styryl/alkyne hybrid molecule as a potent anti-adipogenic and antidyslipidemic agent via activation of Wnt/β-catenin pathway” (Eur J Med Chem, 2025)
Active and inactive are the calls of the source. The calls are words filed in the database; no cut-off is given here.

Legend:
[1] = system: 3T3-L1; test: Anti-adipogenic activity in mouse 3T3-L1 cells assessed as suppression of adipogenesis at 20 uM measured for 72 hrs by oil red O staining based analysis; assay type: functional
[2] = system: 3T3-L1; test: Cytotoxicity against mouse 3T3-L1 cells assessed as cell viability at 20 uM incubated for 48 hrs by MTT assay; assay type: toxicity, cell-based; conditions: 3t3-l1, 48 h
[3] = system: 3T3-L1; test: Anti-adipogenic activity in MDI-induced mouse 3T3-L1 cells assessed as suppression of adipogenesis at 0.3 uM by oil red O staining based analysis; assay type: functional, cell-based; conditions: time 72.0 hrs
[4] = system: 3T3-L1; test: Cytotoxicity against mouse 3T3-L1 cells assessed as cell viability at 30 uM incubated for 48 hrs by MTT assay; assay type: toxicity, cell-based; conditions: 3t3-l1, 48 h
[5] = system: 3T3-L1; test: Cytotoxicity against mouse 3T3-L1 cells assessed as cell viability upto 50 uM incubated for 48 hrs by MTT assay; assay type: toxicity, cell-based; conditions: 3t3-l1, 48 h
[6] = system: 3T3-L1; test: Cytotoxicity against mouse 3T3-L1 cells assessed as cell viability upto 100 uM incubated for 48 hrs by MTT assay; assay type: toxicity, cell-based; conditions: 3t3-l1, 48 h
[7] = system: 3T3-L1; test: Anti-adipogenic activity in mouse 3T3-L1 cells assessed as suppression of adipogenesis at 1 uM by oil red O staining based analysis; assay type: functional, cell-based
[8] = system: 3T3-L1; test: Anti-adipogenic activity in mouse 3T3-L1 cells assessed as reduction in lipid accumulation at 10 uM; assay type: functional
[9] = system: 3T3-L1; test: Anti-adipogenic activity in mouse 3T3-L1 cells assessed as reduction in lipid accumulation at 10 uM measured at upto 3 days; assay type: functional, cell-based; conditions: time <= 3.0 day
[10] = system: 3T3-L1; test: Anti-adipogenic activity in mouse 3T3-L1 cells assessed as reduction in lipid accumulation at 10 uM measured at upto 7 days; assay type: functional, cell-based; conditions: time <= 7.0 day
[11] = system: 3T3-L1; test: Anti-adipogenic activity in mouse 3T3-L1 cells assessed as change in lipid content at 10 uM measured at 3 to 5 days; assay type: functional, cell-based; conditions: time 3-5 day
[12] = system: 3T3-L1; test: Anti-adipogenic activity in mouse 3T3-L1 cells assessed as change in lipid content at 10 uM measured at 5 to 7 days; assay type: functional, cell-based; conditions: time 5-7 day
[13] = system: 3T3-L1; test: Inhibition of adipogenesis in mouse 3T3-L1 cells assessed as downregulation of PPARgamma expression at 10 uM measured at upto 5 days by immunoblotting analysis; assay type: functional, cell-based; conditions: time <= 5.0 day
[14] = system: 3T3-L1; test: Inhibition of adipogenesis in mouse 3T3-L1 cells assessed as downregulation of PPARgamma expression at 10 uM measured at upto 7 days by immunoblotting analysis; assay type: functional, cell-based; conditions: time <= 7.0 day
[15] = system: 3T3-L1; test: Inhibition of adipogenesis in mouse 3T3-L1 cells assessed as downregulation of CEBPalpha expression at 10 uM measured at upto 3 days by immunoblotting analysis; assay type: functional, cell-based; conditions: time <= 3.0 day
[16] = system: 3T3-L1; test: Inhibition of adipogenesis in mouse 3T3-L1 cells assessed as downregulation of CEBPalpha expression at 10 uM measured at upto 7 days by immunoblotting analysis; assay type: functional, cell-based; conditions: time <= 7.0 day
[17] = system: 3T3-L1; test: Inhibition of adipogenesis in mouse 3T3-L1 cells assessed as downregulation of FABP4 expression at 10 uM measured at upto 7 days by immunoblotting analysis; assay type: functional, cell-based; conditions: time <= 7.0 day
[18] = system: 3T3-L1; test: Inhibition of adipogenesis in mouse 3T3-L1 cells assessed as downregulation of FABP4 expression at 10 uM measured at upto 3 days by immunoblotting analysis; assay type: functional, cell-based; conditions: time <= 3.0 day
[19] = system: 3T3-L1; test: Inhibition of adipogenesis in mouse 3T3-L1 cells assessed as downregulation of FABP4 expression at 10 uM measured at upto 5 days by immunoblotting analysis; assay type: functional, cell-based; conditions: time <= 5.0 day
[20] = system: 3T3-L1; test: Induction of cell cycle arrest in mouse 3T3-L1 cells assessed as reduction in percentage of cells at G1 phase at 10 uM incubated for 16 to 24 hrs by flow cytometry analysis; assay type: functional, cell-based; conditions: time 16-24 hrs
[21] = system: 3T3-L1; test: Induction of cell cycle arrest in mouse 3T3-L1 cells assessed as reduction in CDK2 level at 10 uM incubated for 16 to 24 hrs by immunoblotting analysis; assay type: functional, cell-based; conditions: time 16-24 hrs
[22] = system: 3T3-L1; test: Induction of cell cycle arrest in mouse 3T3-L1 cells assessed as reduction in CDK4 level at 10 uM incubated for 16 to 24 hrs by immunoblotting analysis; assay type: functional, cell-based; conditions: time 16-24 hrs
[23] = system: 3T3-L1; test: Induction of cell cycle arrest in mouse 3T3-L1 cells assessed as reduction in cyclin D3 level at 10 uM incubated for 16 to 24 hrs by immunoblotting analysis; assay type: functional, cell-based; conditions: time 16-24 hrs
[24] = system: 3T3-L1; test: Induction of cell cycle arrest in mouse 3T3-L1 cells assessed as reduction in cyclin D1 level at 10 uM incubated for 16 to 24 hrs by immunoblotting analysis; assay type: functional, cell-based; conditions: time 16-24 hrs
[25] = system: 3T3-L1; test: Anti-adipogenic activity in mouse 3T3-L1 cells assessed as increase in GATA2 mRNA expression by measuring fold change at 10 uM incubated for 16 to 24 hrs; assay type: functional; conditions: time 16-24 hrs
[26] = system: 3T3-L1; test: Anti-adipogenic activity in mouse 3T3-L1 cells assessed as increase in beta-catenin mRNA expression at 10 uM incubated for 16 to 24 hrs; assay type: functional, cell-based; conditions: time 16-24 hrs
[27] = system: 3T3-L1; test: Anti-adipogenic activity in mouse 3T3-L1 cells assessed as increase in GSK3beta mRNA expression at 10 uM incubated for 16 to 24 hrs; assay type: functional, cell-based; conditions: time 16-24 hrs
[28] = system: 3T3-L1; test: Anti-adipogenic activity in mouse 3T3-L1 cells assessed as reduction in lipid accumulation at 10 uM in presence of FH535 by microscopic analysis; assay type: functional, cell-based
[29] = system: 3T3-L1; test: […] of Wnt/beta-catenin signalling in mouse 3T3-L1 cells assessed as increase in beta-catenin level at 10 uM by immunoblotting analysis; assay type: cell-based
[30] = system: 3T3-L1; test: […] of Wnt/beta-catenin signalling in mouse 3T3-L1 cells assessed as increase in GSK3beta level at 10 uM by immunoblotting analysis; assay type: cell-based
[31] = Cmax in Golden Syrian hamster at 100 mg/kg, po measured upto 24 hrs by LC-MS/MS analysis; assay type: ADME, organism-based, Mesocricetus auratus; conditions: in vivo
[32] = Tmax in Golden Syrian hamster at 100 mg/kg, po measured upto 24 hrs by LC-MS/MS analysis; assay type: ADME, organism-based, Mesocricetus auratus; conditions: in vivo
[33] = AUC in Golden Syrian hamster at 100 mg/kg, po measured upto 24 hrs by LC-MS/MS analysis; assay type: ADME, organism-based, Mesocricetus auratus; conditions: in vivo
[34] = Half life in Golden Syrian hamster at 100 mg/kg, po measured upto 24 hrs by LC-MS/MS analysis; assay type: ADME, organism-based, Mesocricetus auratus; conditions: in vivo
[35] = Clearance in Golden Syrian hamster at 100 mg/kg, po measured upto 24 hrs by LC-MS/MS analysis; assay type: ADME, organism-based, Mesocricetus auratus; conditions: in vivo
[36] = Volume of distribution in Golden Syrian hamster at 100 mg/kg, po measured upto 24 hrs by LC-MS/MS analysis; assay type: ADME, organism-based, Mesocricetus auratus; conditions: in vivo
[37] = MRT in Golden Syrian hamster at 100 mg/kg, po measured upto 24 hrs by LC-MS/MS analysis; assay type: ADME, organism-based, Mesocricetus auratus; conditions: in vivo
[38] = Toxicity in Golden Syrian hamster assessed as body weight gain at 100 mg/kg, po administered for 7 days; assay type: organism-based, Mesocricetus auratus; conditions: in vivo, 168 h, time 7 day
[39] = system: Syrian golden hamster; test: Anti-dyslipidemic activity in HFD-induced Golden Syrian hamster model assessed as decrease in eWAT accumulation at 100 mg/kg, po administered for 7 days; assay type: functional, organism-based; conditions: Mesocricetus auratus, time 7.0 day
[40] = Toxicity in Golden Syrian hamster assessed as reduction in liver weight at 100 mg/kg, po administered for 7 days; assay type: organism-based, Mesocricetus auratus; conditions: in vivo, 168 h, time 7 day
[41] = Toxicity in Golden Syrian hamster assessed as reduction in TG level in serum at 100 mg/kg, po administered for 7 days; assay type: organism-based, Mesocricetus auratus; conditions: in vivo, 168 h, time 7 day
[42] = Toxicity in Golden Syrian hamster assessed as reduction in LDL level in serum at 100 mg/kg, po administered for 7 days; assay type: organism-based, Mesocricetus auratus; conditions: in vivo, 168 h, time 7 day

For `Cc1ccc(/C=C/c2ccc(-c3cc(C(=O)O)c4cc(F)ccc4n3)cc2)cc1`, the Activity [1] was 70%, the Activity [2] was “Non-toxic” and the Activity [3] was “Active”. For the same molecule, the Activity [4] was “Toxic”, the Activity [5] was “Non-toxic” and the Activity [6] was “Toxic”. The Activity [7] was “Active”, the inhibition at 10 µM [8] was roughly 50% and the Activity [9] was “Active”. For the same molecule, the Activity [10] was “Active”, the Activity [11] was “Active” and the Activity [12] was “Active”. For the same molecule, the inhibition [13] was “Active”, the inhibition [14] was “Active” and the inhibition [15] was “Active”. The inhibition [16] was “Active”, the inhibition [17] was “Active” and the inhibition [18] was “Active”. The inhibition [19] was “Active”, the Activity [20] was “Active” and the Activity [21] was “Active”. The Activity [22] was “Active”, the Activity [23] was “Active” and the Activity [24] was “Active”. For the same molecule, the “fold change (FC)” value [25] was 10, the Activity [26] was “Active” and the Activity [27] was “Active”. The Activity [28] was “Active”, the inhibition [29] was “Active” and the inhibition [30] was “Active”. The Cmax [31] was 17.7 µg/mL, the Tmax [32] was 0.25 h and the AUC at 24 h [33] was 35.7 µg·h/mL. The half-life [34] was 3.64 h, the CL/F [35] was 2.81 L/h/kg and the Vd [36] was 14.79 L/kg. The MRT [37] was 2.89 h, the Activity [38] was “Non-toxic” and the Activity [39] was “Active”. For the same molecule, the Activity [40] was “Non-toxic”, the Activity [41] was “Non-toxic” and the Activity [42] was “Non-toxic”.
